Several values for one entry are separate records, joined by “and”; a condition that tells them apart may be missing. Identical values can stand only once. Like-named read-outs stand apart in the source and are kept apart here.
Key:
[1] = Solubility; assay type: physicochemical
Method: (§1) Thus, in all experiments, 7-chloro-4-hydroxy-2-quinoline carbonyl azide was first dissolved at high concentrations (1-10 mM) in dimethylsulfoxide (DMSO) and then diluted in the appropriate physiological buffer. […] The appropriate DMSO control was performed at the same time, and no changes in the binding of radioligands were ever observed. This procedure, and all subsequent procedures where non-photolyzed material was desired, were performed under red light.

[2] = target: T1, NMDA receptor/channel complex (Rattus norvegicus, UniProt P35439); experiment: biochemical; assay type: biochemical
T1 construct: buffy coat rat cortical membrane preparation; from tissue; host or cells: rat cerebral cortex, buffy coat membranes
Method: (§2) The tissue was homogenized in a glass grinding vessel with a teflon pestle in ice-cold 0.32 M sucrose and centrifuged for 10 min at 1000×g. The resultant supernatant was decanted and recentrifuged at 20,000×g for 20 min. The pellet was resuspended in 20 volumes of ice-cold dH20 and centrifuged for 20 min at 8000×g. The supernatant and the buffy coat were then re-collected and recentrifuged at 48,000×g for 20 min. The pellet was resuspended in 20 volumes of ice-cold water and centrifuged for 20 min at 48,000×g, after which it was stored at -20° C. for not more than two weeks. On the day of the assay, the pellet was thawed, resuspended in 40 volumes of buffer, incubated at 37° C. for 20 min in the appropriate buffer, and centrifuged for 10 min at 48,000×g. The pellet was then resuspended in 40 volumes of buffer and recentrifuged at 48,000×g for 10 min. This step was repeated twice before the pellet finally resuspended in a buffer suitable for the particular binding assay. Protein concentrations were determined by the method described by Smith (1985).
D. ^3 H-TCP Binding Assay
The dissociative anesthetics ketamine and phencyclidine (PCP) selectively antagonize depolarizations produced by NMDA.
^3 H-TCP binding assays were initiated by addition of 100 μl aliquots of membrane homogenate (approximately 150 μg protein) to test tubes containing 5 nM ^3 H-TCP in the presence or absence of the test drug(s) dissolved in 10 mM HEPES buffer pH 7.5. The final volume in each tube was 1 ml, and tubes were incubated for 2 hr at 23° C. Non-specific binding was defined as that remaining in the presence of 30 μM PCP. The filtration procedure was used as described above except that the filters were presoaked for one hour in 0.03% polyethyleneimine (PEI) (Sigma) to reduce filter binding. Scintillation counting was performed as described above.
(§3) Previously washed rat cortical membranes were resuspended at approximately 0.1 mg protein/ml in the appropriate buffer (pH 7.4 at 23° C.), and 30 ml were placed in each of 3 or 4 150×25 mm polystyrene culture dishes on a rotating shaker. A 200 μL aliquot of a 10 mM solution of 7-chloro-4-hydroxy-2-quinoline carbonyl azide dissolved in DMSO was added and the solution was mixed for 10 min in the dark. Photolysis was accomplished by exposure of the reaction mixture to 366 nm long-wave ultraviolet light (Transilluminator, Fotodyne, Model 3-3000) at a distance of 5 cm for 10 min with continuous mixing.
(§4) The Hill slopes (nH) and maximal displacement of radioligand binding were estimated by non-linear curve-fitting to a sigmoidal algorithm using the EBDA portion of the LIGAND data analysis software package for the IBM-PC (Elsevier). K1 values were obtained from the LIGAND analysis of the same data. KD and Bmax estimates were obtained by non-linear curve-fitting of the saturation isotherm using programs from the same software package (Munson and Rodbard, 1980). All data analysis was performed on each of 3-7 individual experiments performed in triplicate (7 concentrations) or duplicate (10 concentrations). Reported values are the mean ±S.E.M. of these analyses. For displacement experiments, these values were plotted with the sigmoid curve taken as the average of the sigmoidal fits of each individual experiment.

[3] = system: NMDA receptor; experiment: Photolabeling of cortical membranes followed by SDS polyacrylamide gel electrophoresis; assay type: binding, rat; details: cortical membranes photolabeled, 366 nm; bands Rf 0.71 and 0.53
Method: E. Photolabeling with 7-chloro-4-hydroxy-2-quinoline carbonyl azide
as §1
as §3, with “Photolysis was accomplished by exposure of the reaction mixture to 366 nm long-wave ultraviolet light (Transilluminator, Fotodyne, Model 3-3000) at a distance of 5 cm for 10 min with continuous mixing.” left out
Cortical membranes were photolabeled with 7-chloro-4-hydroxy-2-quinoline as described in Example II, section E. Protein concentration of this preparation was determined using the BCA protein assay kit (Pierce, Rockford, Ill.). […]
Gels were removed and fluorescent bands visualized and recorded using a transilluminator (Fotodyne, New Berlin, Wis.) fitted with four 366nm UV bulbs (15 watts). […]

[4] = target: NMDA recognition site; experiment: NMDA-specific 3H-L-glutamate binding assay in cortical membranes; parameters: species or system rat
Method: as §2, with “^3 H-Glycine (^3 H-GLY), ^3 H-TCP and NMDA specific ^3 H-GLU binding assays were performed in a buffy coat rat cortical membrane preparation (Jones et al., 1989). The tissue” for “The tissue”, “at 48,000×g. […] Protein concentrations” for “at 48,000×g. The pellet was then resuspended in 40 volumes of buffer and recentrifuged at 48,000×g for 10 min. This step was repeated twice before the pellet finally resuspended in a buffer suitable for the particular binding assay. Protein concentrations”, “Smith (1985). […]” for “Smith (1985).”
For equilibrium saturation experiments, different concentrations of ^3 H-glutamate (diluted with unlabeled L-glutamate) ranging from 10 to 320 nM in the presence or absence of test drug(s) were examined. Non-specific binding was defined as that remaining in the presence of 300 μM NMDA and was determined at the lowest and the highest concentration of ^3 H-L-glutamate. […]

[5] = target: T2, strychnine-insensitive glycine site associated with the NMDA receptor/channel complex (Rattus norvegicus, UniProt P35439); experiment: 3H-glycine binding assay in cortical membranes; details: for Hill slope (nH), displacement of 3H-glycine binding: mean ± S.E.M.
T2 construct: buffy coat rat cortical membrane preparation; from tissue; host or cells: rat cerebral cortex, buffy coat membranes
Method: as §2, with “^3 H-Glycine (^3 H-GLY), ^3 H-TCP and NMDA specific ^3 H-GLU binding assays were performed in a buffy coat rat cortical membrane preparation (Jones et al., 1989). The tissue” for “The tissue”
C. ^3 H-Glycine Binding Assay
^3 H-glycine binding assays were initiated by addition of 100 μl aliquots of membrane homogenate (100-150 μg protein) to test tubes containing 20 nM ^3 H-glycine in the presence or absence of the test drug(s) dissolved in 50 mM Tris acetate or 50 mM Na-free HEPES buffer pH 7.5 for a final volume of 1 ml, followed by incubation for 30 min at 4° C. […] The filtration procedure and scintillation counting were performed as described above.
as §4

[6] = system: glycine modulatory site; details: Kemp et al., 1988; cited from earlier work
[7] = target: T2, strychnine-insensitive glycine site associated with the NMDA receptor/channel complex; details: read-out: K1 at the glycine site (reported); Fletcher and Lodge, 1988; cited from earlier work
[8] = system: NMDA-mediated neuronal response; details: glycine-reversible; Fletcher and Lodge, 1988; cited from earlier work
[9] = tissue treated with 7-chloro-4-hydroxyquinaldic acid and exposed to UV light

## [N-]=[N+]=NC(=O)c1cc(O)c2ccc(Cl)cc2n1 [7-chloro-4-hydroxy-2-quinoline carbonyl azide]
[1]
  solubility in polar solutions: limited solubility
[2]; non-photolyzed azide
  mode of inhibition of glycine action on 3H-TCP binding, non-photolyzed: competitive antagonism of the actions of glycine
[2]; read-out: decrease of 3H-TCP binding in the absence of added glycine
  inhibition at 10 µM: 70%
[2]; tissue UV irradiated in the presence of azide
  mode of inhibition of glycine-enhanced 3H-TCP binding, UV irradiated: distinctly non-competitive inhibition of glycine-enhanced ^3 H-TCP binding
[3]
  fluorescent bands on SDS polyacrylamide gel after photolabeling: two distinct fluorescent bands
[4]; n=5, mean ± S.E.M., read-out: K1 for the NMDA site
  Ki: 101 ± 12 µM
[4]; rat cortical membranes, FIG. 2B
  displacement of NMDA-specific 3H-L-glutamate binding: less than 10%
[5]
  Ki: 2.4 ± 0.2 µM
[5]; azide relative to 7-chloro-4-hydroxyquinaldic acid
  decrease in the apparent affinity for the 3H-glycine binding site on introduction of an azido group: 5 fold
[5]; rat cortical membranes, red light
  mode of displacement of 3H-glycine binding: apparently competitive
[5]; rat cortical membranes
  Hill slope (nH), displacement of 3H-glycine binding: 0.90±0.08
[5]; relative to the NMDA recognition site labeled by 3H-L-glutamate
  selectivity for the 3H-glycine binding site: selective affinity for the ^3 H-glycine binding site relative to the NMDA recognition site

## O=C(O)c1cc(O)c2ccc(Cl)cc2n1 [7-chloro-4-hydroxyquinaldic acid]
[2]; [9]
  reduction of 3H-TCP binding in the absence of added glycine: 100%
  rightward parallel shift of the glycine concentration-response curve: 4 fold
[5]
  Ki: 0.49 ± 0.05 µM
[5]; rat cortical membranes
  Hill slope (nH), displacement of 3H-glycine binding: 0.74±0.03
[6]
  activity at the glycine modulatory site: selective antagonist of the glycine modulatory site

## NC1CCN(O)C1=O (stereo not drawn) [HA-966, 1-hydroxy-3-aminopyrrolidone-2]
[7]
  Ki: ~5 µM
[8]
  effect on NMDA-mediated neuronal response: reduce NMDA-mediated neuronal response in a glycine-reversible manner

## NCC(=O)O [glycine]
[2]
  slope of glycine concentration-response, 3H-TCP binding: 1.02 and 0.93 and 1.15
[2]; read-out: maximal increase of 3H-TCP binding by glycine
  Emax: 150%
